According to PubChem BioAssay (NCI):
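Five compound concentrations were applied to cells in 96-well plates for 48 hours; endpoints were derived by simple linear interpolation of the resulting dose-response curve. GI50: concentration for 50% inhibition of growth. At the TGI there is no net growth.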

Experiments:
Experiment in all cases: growth of human tumour cells (NCI), 48 h
HOP-92 NSCLC = tested on: HOP-92 NSCLC
MALME-3M melanoma = tested on: MALME-3M melanoma
NCI-H23 lung = tested on: NCI-H23 lung
SF-295 CNS = tested on: SF-295 CNS
SF-539 CNS = tested on: SF-539 CNS
SK-OV-3 ovarian = tested on: SK-OV-3 ovarian
SN12C renal = tested on: SN12C renal
SNB-75 CNS = tested on: SNB-75 CNS
SW-620 colon = tested on: SW-620 colon
NCI/ADR-RES ovarian = tested on: NCI/ADR-RES ovarian

SMILES	GI50 (HOP-92 NSCLC)	TGI (HOP-92 NSCLC)	GI50 (MALME-3M melanoma)	TGI (MALME-3M melanoma)	GI50 (NCI-H23 lung)	TGI (NCI-H23 lung)	GI50 (SF-295 CNS)	TGI (SF-295 CNS)	GI50 (SF-539 CNS)	TGI (SF-539 CNS)	GI50 (SK-OV-3 ovarian)	TGI (SK-OV-3 ovarian)	GI50 (SN12C renal)	TGI (SN12C renal)	GI50 (SNB-75 CNS)	TGI (SNB-75 CNS)	GI50 (SW-620 colon)	TGI (SW-620 colon)	GI50 (NCI/ADR-RES ovarian)	TGI (NCI/ADR-RES ovarian)
N.N.N.N.N.NC(=O)c1nn[n-]n1.[Cl-].[Co+3]	> 100 µM	> 100 µM	> 100 µM	> 100 µM	> 100 µM	> 100 µM	> 100 µM	> 100 µM	> 100 µM	> 100 µM	> 100 µM	> 100 µM	> 100 µM	> 100 µM	> 100 µM	> 100 µM	> 100 µM	> 100 µM	–	–
COc1cc(Br)c(C=Nc2cccc3cc(OC)c(OC)cc23)cc1OC	–	98.1 µM	–	> 100 µM	–	> 100 µM	–	73.4 µM	–	66.9 µM	–	> 100 µM	–	> 100 µM	–	59 µM	–	> 100 µM	–	–
O=C1CC(O)CC(=O)C1=C(O)CCCCCCCCCCc1ccccc1 (stereo unspecified)	–	> 100 µM	–	–	–	> 100 µM	–	> 100 µM	–	> 100 µM	–	> 100 µM	–	> 100 µM	–	> 100 µM	–	> 100 µM	–	–
O=C(O)CCN(CCCCN(CCC(=O)O)CCC(=O)O)CCC(=O)O	–	> 100 µM	–	> 100 µM	–	> 100 µM	–	> 100 µM	–	> 100 µM	–	> 100 µM	–	> 100 µM	–	> 100 µM	–	> 100 µM	–	–
COc1ccc(C23C(=O)c4ccccc4N2O[C@H]2C(=O)N(c4ccccc4)C(=O)[C@H]23)cc1 (stereo partly specified)	–	> 100 µM	–	> 100 µM	–	> 100 µM	–	> 100 µM	–	> 100 µM	–	> 100 µM	–	> 100 µM	–	> 100 µM	–	> 100 µM	–	–
COc1ncnc2c(-c3ccccc3)cn(COCc3ccccc3)c12	–	–	2.52 µM	7.69 µM	3.02 µM	> 100 µM	2.82 µM	15.4 µM	11.8 µM	> 100 µM	7.69 µM	> 100 µM	3.12 µM	30 µM	4.03 µM	> 100 µM	4.6 µM	> 100 µM	3.17 µM	19.1 µM
N.N.N.N.[Co+3].[N-]=[N+]=[N-].[N-]=[N+]=[N-].[N-]=[N+]=[N-]	19 µM	> 100 µM	78.1 µM	> 100 µM	> 100 µM	> 100 µM	> 100 µM	> 100 µM	26.6 µM	> 100 µM	> 100 µM	> 100 µM	> 100 µM	> 100 µM	> 100 µM	> 100 µM	> 100 µM	> 100 µM	–	–
O=C1N(C2CCCCC2)CC12CCCCC2	–	> 100 µM	–	> 100 µM	–	> 100 µM	–	–	–	> 100 µM	–	> 100 µM	–	> 100 µM	–	> 100 µM	–	> 100 µM	–	–
Cc1nnn[n-]1.N.N.N.N.N.[Cl-].[Co+3]	> 100 µM	> 100 µM	> 100 µM	> 100 µM	> 100 µM	> 100 µM	> 100 µM	> 100 µM	> 100 µM	> 100 µM	> 100 µM	> 100 µM	> 100 µM	> 100 µM	> 100 µM	> 100 µM	> 100 µM	> 100 µM	–	–
CC1(C)O[C@H]2[C@H](O)C[C@](O)(CO)C[C@H]2O1	–	> 100 µM	–	> 100 µM	–	> 100 µM	–	> 100 µM	–	> 100 µM	–	> 100 µM	–	> 100 µM	–	> 100 µM	–	> 100 µM	–	–
NC(=O)C(=O)N/N=C1\C(=O)N(c2ccc(Cl)cc2Cl)C(=O)C1C(=O)Nc1ccc(Cl)cc1Cl (stereo unspecified)	–	> 100 µM	–	> 100 µM	–	> 100 µM	–	> 100 µM	–	> 100 µM	–	> 100 µM	–	> 100 µM	–	> 100 µM	–	> 100 µM	–	–
C[C@]12C[C@H](CCCCCCNCCOC(=O)NCCCc3ccc(N(CCCl)CCCl)cc3)C3=C4CCC(=O)C=C4CCC3C1CC[C@@H]2O (stereo partly specified)	–	–	2.29 µM	5.15 µM	1.54 µM	3.01 µM	2.07 µM	> 100 µM	1.4 µM	3.33 µM	–	–	1.89 µM	3.39 µM	1.46 µM	2.91 µM	1.2 µM	4.07 µM	14 µM	36.2 µM
CCCCCCCCNc1cc2c3c(c1)CCCN3CCC2	–	–	2.05 µM	8.53 µM	1.79 µM	18.1 µM	2.31 µM	10.8 µM	2.81 µM	17 µM	2.36 µM	7.96 µM	2.56 µM	14.7 µM	1.47 µM	10.8 µM	2.14 µM	13.3 µM	19.7 µM	> 100 µM
O=[N+]([O-])c1ccc(C[P+](c2ccccc2)(c2ccccc2)c2ccccc2)cc1	–	–	–	> 100 µM	–	> 100 µM	–	> 100 µM	–	> 100 µM	–	> 100 µM	–	> 100 µM	–	> 100 µM	–	> 100 µM	–	–
COC(=O)NC(=O)c1cn(C2OC(CO)C(O)C2O)c(=O)[nH]c1=O (stereo unspecified)	–	> 100 µM	–	> 100 µM	–	> 100 µM	–	> 100 µM	–	> 100 µM	–	> 100 µM	–	> 100 µM	–	> 100 µM	–	> 100 µM	–	–
CCOC(=O)C12CCCC1(O)N(NC(=O)OC(C)(C)C)C(C)=C2C(=O)OC (stereo unspecified)	–	> 100 µM	–	> 100 µM	–	> 100 µM	–	> 100 µM	–	> 100 µM	–	> 100 µM	–	> 100 µM	–	–	–	> 100 µM	–	–
CCCCCCCCCCCc1nnc(N)o1	–	> 100 µM	–	> 100 µM	–	> 100 µM	–	> 100 µM	–	> 100 µM	–	> 100 µM	–	> 100 µM	–	> 100 µM	–	> 100 µM	–	–
CN(O)C(=O)SCC(NC(=O)CCC(N)C(=O)O)C(=O)NCC(=O)O (stereo unspecified)	> 2000 µM	> 2000 µM	> 2000 µM	> 2000 µM	> 2000 µM	> 2000 µM	–	> 2 µM	–	> 2 µM	> 2000 µM	> 2000 µM	> 2000 µM	> 2000 µM	> 2000 µM	> 2000 µM	–	> 2000 µM	–	–
